Laboratory results as given in patent US20090036437A1, “PHARMACEUTICAL COMPOSITION COMPRISING PHENOXAZINIUM COMPOUND AS AN ACTIVE INGREDIENT” (priority 2005, published 2009).
Read-outs that look alike come from different tables or passages of the source. Each block holds one molecule with its values, some of them ahead of it.

Tests used:
[1] = test system: Plasmodium Falciparum K1 strain; test: in vitro growth-inhibiting screening assay, chloroquine-resistant falciparum malaria; format: cell-based
Procedure: Plasmodium Falciparum K1 strain was used as a chloroquine-resistant protozoa of falciparum malaria. RMI-1640 sterilized by filtration was supplemented with human serum of a final concentration of 5% to be used as a culture medium. The malaria protozoa were cultured under O2 concentration of 3%, CO2 concentration of 4%, N2 concentration of 93% at 37° C.
A test sample was prepared by dissolving the test compounds according to the present invention and a positive control drug (chloroquine) in DMSO to a predetermined concentration. The erythrocytes infected with the cultured malaria protozoa were collected by centrifugation and so diluted with non-infected erythrocytes to have an initial infection ratio of 0.15%. The hematocrit value was then 2.5%. Culture mixture of the above malaria-infection culture medium (200 μL) was placed into each well of a 96-well culture plate, and the test sample comprising the predetermined amount of the test compound, and DMSO without the test compound were added to the wells in duplicate.
After culture for 48 hours at 37° C., hypoxanthine labeled with radioactive tritium (^3H) of 0.5 μCi was added to each well. After the culture in the same conditions for further 24 hours, the sample was taken on a glass fiber filter and washed with distilled water. Intensity of radiation was measured by means of plate liquid scintillation counter (Wallac Co.), and an infection ratio of the protozoa of malaria was calculated with respect to a group treated with the test sample and the control. A growth-inhibiting ratio was then calculated from the resulting infection ratio in accordance with the following equation to determine 50% growth-inhibiting concentration (EC50).
Growth-inhibiting ratio (%)=[1−(b−a)/(c−a)]×100 • a: Initial infection ratio; • b: Infection ratio of the test sample group; and • c: Infection ratio of the control group. In vitro Growth-Inhibiting Assay of Rat L6 Cells
Anti-malaria effect of the samples was assessed by their EC50 values for the chloroquine-resistant protozoa of falciparum malaria and the rat L6 cell. A chemotherapy coefficient, which is used as an index for the selective toxicity for the chloroquine-resistant protozoa of falciparum malaria was calculated by the following equation, and the pharmaceutical effect was determined.
Chemotherapy coefficient=(EC50 value of the test sample for rat L6 cell)/(EC50 value of the test sample for the chloroquine-resistant protozoa of falciparum malaria)

[2] = test system: Rat L6 cell (rat skeletal myoblast cell); test: in vitro growth-inhibiting assay of rat L6 cells; format: cell-based
Procedure: Rat L6 cell (rat skeletal myoblast cell) was cultured in RPMI-1640 culture medium supplemented with 1% of L-glutamine (200 mM) and fetal calf serum (10%) under 5% CO2 concentration at 37° C. A test sample was prepared by dissolving the test compounds according to the present invention and a positive control drug in DMSO to a predetermined concentration. After pre-culture had been finished, the culture medium containing the cells in a logarithmic phase was placed into each well of a 96-well culture plate, and the test sample comprising the predetermined amount of the test compound, and DMSO without the test compound were added to the wells in duplicate.
After incubation of the culture plate for 72 hours in an incubator, a growth-inhibiting activity was assayed as follows. Alamar Blue aqueous solution (10 μL) was added to each well followed by a further two-hour culture. The culture plate was then attached to a fluorescence micro titer plate reader (Spectramax Gemeni XS; U.S. Molecular Device Co.), and the intensity of fluorescence at 588 nm was detected with an excitation wave length of 536 nm. A residual ratio of L6 cells was calculated with respect to a group treated with the test sample and a control group. A growth-inhibiting ratio for L6 cells was then calculated from the resulting residual ratio in accordance with the following equation to determine 50% growth-inhibiting concentration (EC50).
Growth-inhibiting ratio (%)=[1−(C−A)/(B−A)]×100 • A: Initial number of cells; • B: Number of the cells in the control after 3 days; and • C: Number of the cells treated with the test sample after 3 days Determination of Pharmaceutical effect for Chloroquine-Resistant Malaria

[3] = test system: Plasmodium berghei NK65 strain; test: in vivo 4-day suppressive test, intraperitoneal administration, mouse infected with malaria; settings: 4 days
Procedure: This test was carried out in accordance with 4-day suppressive test that is a general in vivo test for the activity of an anti-malaria compound. Rodent malaria protozoa (Plasmodium berghei NK65 strain) were used in this test. Infected blood was prepared by infection with intraperitoneal administration into ICR male mouse (5 weeks age; SPF) and passage culture (subculture) thereafter. Blood was drawn from the vein of a tail of the moue infected with malaria, and its infection ratio was determined. After it was confirmed that the infection ratio had been increased up to an appropriated level (10˜20%), the blood infected with malaria was drawn from the heart of the mouse. The infection ratio and number (cells/mL) of erythrocytes were determined. An uninfected mouse (ICR male, 5 weeks age) was then infected with an injection of the infected erythrocytes so diluted with PBS as to comprise the protozoa of […] per dose (0.2 mL) into the vein of its tail.
A test sample was prepared by dissolving the test compounds according to the present invention into physiologic saline (Otsuka Pharmaceuticals Industries) to a predetermined concentration. In the case where the compound was insoluble in water, it was dissolved into DMSO or Tween 20 to prepare the test sample. A control group (no drug-administration group) was treated only with physiologic saline. […]
One group consisted of five mice. The intraperitoneal administration of the test sample started after two hours from the infection with malaria and continued for successive 4 days with a 24-hour interval. After 24 hours from the last administration, blood was drawn from the tail of the infected mouse to prepare a thin-layer smear, and the number of the erythrocytes infected with the malaria protozoa under a microscope with respect to the control group and the test sample groups. Parasitemia, i.e., the infection ratio with the malaria protozoa, was obtained by calculating an average value of the medium three mice except the two mice showing a maximum or minimum inhibition level. A cure rate (suppression) was then calculated from the resulting parasitemia in accordance with the following equation.
Cure rate: suppression (%)=(b−a)/b×100 • a: Infection ratio of the test sample group; and • b: Infection ratio of the control group.

Plasmodium falciparum W2 = settings: in vitro; cited from earlier work
malaria = settings: mice infected with malaria; 4-day successive treatment, peritoneal administration 5 mg/kg/day; cited from earlier work
[4] = test system: Leishmania donovani (MHOM/ET/67/L82 strain); test: in vitro growth-inhibiting screening assay, protozoa of Leishmaniasis; format: cell-based; settings: Leishmania donovani; amastigotes; 72 h, Alamar Blue; read-out: growth-inhibiting concentration (nM) Leishmania donovani
Procedure: This test was done using the protozoa of Leishmania donovani (MHOM/ET/67/L82 strain). The protozoa were subcultured using Syrian Golden hamster and an amastigote was obtained therefrom. The amastigotes were cultured in SM medium supplemented with 10% of heat-treated fetal calf serum (pH 5.4) under CO2 concentration of 5%, at 37° C.
A test sample was prepared by dissolving the test compounds according to the present invention and a positive control drug (Miltefosine) in DMSO to a predetermined concentration. Culture medium containing a predetermined number of the protozoa was added into each well of a 96-well culture plate, and the concentration of the amastigotes was measured by means of CASY cell analysis system (Dermany, Scharfe Co.). Test sample comprising the predetermined amount of the test compound, and DMSO without the test compound were added to the wells in duplicate.
After incubation of the culture plate for 72 hours in an incubator, a growth-inhibiting activity was assayed as follows. Alamar Blue aqueous solution (10 μL) was added to each well followed by a further two-hour culture. The culture plate was then attached to a fluorescence micro titer plate reader (Spectramax Gemeni XS; U.S. Molecular device Co.), the intensity of fluorescence at 588 nm was detected with excitation wave length of 536 nm to calculate an infection ratio of the protozoa with respect to a group trated with the test sample and a control group. A growth-inhibiting ratio was then calculated from the resulting infection ratio in accordance with the following equation to determine 50% growth-inhibiting concentration (EC50).
(§1) Growth-inhibiting ratio (%)=[1−(b−a)/(c−a)]×100 • a: Initial infection ratio; • b: Infection ratio of the test sample group; and • c: Infection ratio of the control group.
A selective toxicity coefficient, which is used as an index for the selective toxicity for the protozoa of Leishmaniasis, was calculated by the following equation, and the pharmaceutical effect was determined.
A selective toxicity coefficient=(EC50 value of the test sample for rat L6 cell)/(EC50 value of the test sample for the protozoa of Leishmaniasis).

[5] = test system: Trypanosoma cruzi (Tulahuen C2C4 strain); test: in vitro growth-inhibiting screening assay, protozoa of American trypanosomiasis; format: cell-based; settings: Trypanosoma cruzi, TULAHUEN; in infected rat L6 cells; 96 h, CPRG/Nonidet; read-out: 50% growth-inhibiting concentration (nM) Trypanosoma cruzi
Procedure: The test was done using a trypomastigote and an amastigote of the protozoa of Trypanosoma cruzi (Tulahuen C2C4 strain) present in the infected rat L6 cells. The L6 cells were cultured in RPMI-1640 medium supplemented with 1% of […] (200 mM) and 10% of fetal calf serum under CO2 concentration of 5%, at 37° C.
A test sample was prepared by dissolving the test compounds according to the present invention and a positive control drug (benznidazole) in DMSO to a predetermined concentration. Culture medium containing the protozoa of 5×10^3 was added into each well of 96-well culture plate and cultured for 48 hours. After the medium was exchanged, the test sample comprising the predetermined amount of the test compound, and DMSO without the test compound were added into each well in duplicate.
After incubation of the culture plate for 96 hours in an incubator, a growth-inhibiting activity was assayed as follows. CPRG/Nonidet (50 μL) was added to each well followed by a further 2˜6-hour culture. The culture plate was then attached to an absorption micro titer plate reader, the absorbance at 540 nm was detected to calculate an infection ratio of the protozoa with respect to a group treated with the test sample and a control group. A growth-inhibiting ratio was then calculated from the resulting infection ratio in accordance with the following equation to determine 50% growth-inhibiting concentration (EC50).
as §1
A selective toxicity coefficient, which is used as an index for the selective toxicity for the protozoa of American trypanosomiasis, was calculated by the following equation, and the pharmaceutical effect was determined.
A selective toxicity coefficient=(EC50 value of the test sample for rat L6 cell)/(EC50 value of the test sample for the protozoa of American trypanosomiasis).

[6] = chloroquine-resistant strain, 72 h culture, 3H-hypoxanthine, read-out: 50% growth-inhibiting concentration (nM) P. falciparum K1
[7] = Table 3, 72 h, Alamar Blue, read-out: 50% growth-inhibiting concentration (nM) cytotoxicity L6

Structure (SMILES): CN1CCN(c2cc(O)c3nc4ccc(=[N+](C)C)cc-4oc3c2)CC1.Cl.[Cl-] [Compound A-14]
EC50 [1, 6]: 196 nM | EC50 [2, 7]: 86400 nM | Parasitaemia suppression (%) ([3]; 5 mg/kg/day intraperitoneal): 17.4%

Structure (SMILES): C[N+](C)=c1ccc2nc3c(O)cc(N4CCN(CCO)CC4)cc3oc-2c1 [Compound A-15]
EC50 [1, 6]: 191 nM | EC50 [2, 7]: 74600 nM

Structure (SMILES): CCN(CC)CCCC(C)Nc1ccnc2cc(Cl)ccc12 (stereo not shown) [Chloroquine, reference compound]
EC50 ([1]; Plasmodium falciparum, K1, read-out: 50% growth-inhibiting concentration (nM) P. falciparum K1): 150 nM

Structure (SMILES): C[N+](C)=c1ccc2nc3c(C(=O)O)cc(O)c(O)c3oc-2c1.[Cl-] [Gallocyanine]
EC50 (Plasmodium falciparum W2): 674 ± 159 nM | Suppression(%) (malaria): 15.6%

Structure (SMILES): CNc1ccc2nc3ccc(=[N+](C)C)cc-3sc2c1.[Cl-] [Azure B]
EC50 (Plasmodium falciparum W2): 12.7 ± 7.36 nM | Suppression(%) (malaria): 9.1%

EC50 [4]: 280 nM
Structure (SMILES): CCCCCCCCCCCCCCCCOP(=O)([O-])OCC[N+](C)(C)C [Miltefosine, reference compound]

Structure (SMILES): CN(C)c1ccc2nc3ccc(=[N+](C)C)cc-3oc2c1.[O-][Cl+3]([O-])([O-])[O-] [Compound A-2]
Parasitaemia suppression (%) ([3]; 5 mg/kg/day intraperitoneal): 45.9%

Structure (SMILES): Cc1cc2nc3cc(C)c(N)cc3[n+](-c3ccccc3)c2cc1N.[Cl-] [Safranine O]
EC50 (Plasmodium falciparum W2): 34.8 ± 17.2 nM | Suppression(%) (malaria): 14.0%

Structure (SMILES): CC(=O)Oc1cc(N2CCN(C)CC2)cc2oc3cc(=[N+](C)C)ccc-3nc12.Cl.[Cl-] [Compound A-19]
Parasitaemia suppression (%) ([3]; 5 mg/kg/day intraperitoneal): 21.4%

Structure (SMILES): O=C(Cn1ccnc1[N+](=O)[O-])NCc1ccccc1 [benznidazole, reference compound]
EC50 [5]: 870 nM

Structure (SMILES): CN(C)c1ccc2nc3ccc(=[N+](C)C)cc-3sc2c1.[Cl-] [Methylene Blue]
EC50 (Plasmodium falciparum W2): 3.99 ± 2.31 nM | Suppression(%) (malaria): 15.9%

Structure (SMILES): CC[N+](CC)=c1ccc2nc3ccc(N(C)C)cc3oc-2c1.[O-][Cl+3]([O-])([O-])[O-] [Compound A-5]
Parasitaemia suppression (%) ([3]; 5 mg/kg/day intraperitoneal): 77.0%

Structure (SMILES): CCOC(=O)N1CCN(c2cc(O)c3nc4ccc(=[N+](C)C)cc-4oc3c2)CC1.[Cl-] [Compound A-17]
Parasitaemia suppression (%) ([3]; 5 mg/kg/day intraperitoneal): 38.6%

Structure (SMILES): CCN(C)c1ccc2nc3ccc(N(C)C)cc3[o+]c2c1.[O-][Cl+3]([O-])([O-])[O-] [Compound A-9, 3-ethylmethylamino-7-dimethylamino phenoxazinium perchlorate]
Cure rate (%) ([3]; 5 mg/kg/day intraperitoneal): 71.7%

Structure (SMILES): CN(C)c1ccc2nc3ccc(N4CCNCC4)cc3[o+]c2c1.Cl.[Cl-] [Compound A-11, 3-dimethylamino-7-(1-piperazino) phenoxazinium chloride mono-hydrochloride salt]
EC50 [1, 6]: 27.5 nM | EC50 [2]: 63800 nM | Parasitaemia suppression (%) ([3]; 5 mg/kg/day intraperitoneal): 54.8% | Parasitaemia suppression (%) ([3]; Table 5, 5.0 mg/kg/day intraperitoneal): 54.8% | Parasitaemia suppression (%) ([3]; Table 5, 10 mg/kg/day intraperitoneal): 78.5% | Parasitaemia suppression (%) ([3]; Table 5, 20 mg/kg/day intraperitoneal): 98.1% | Parasitaemia suppression (%) ([3]; Table 5, 30 mg/kg/day intraperitoneal): >99.99%
